≈ marks a conversion by molar mass, not a printed value. Where a name gives a salt, the structure may show the parent alone. Read-outs that look alike come from different tables or passages of the source.
Tests used:
Format in all cases: physicochemical
[1] = Solvent solubility screen for Compound 1; conditions: thermodynamic from solid, crystalline Compound 1 (Form 1), read-out: Approximate Solubility
Protocol: Ca. 10 mg of crystalline Compound 1 was placed in 32 vials and 5 volume aliquots of the appropriate solvent systems were added to the appropriate vial. Between each addition, the mixture was checked for dissolution and if no dissolution was apparent, the mixture was heated to ca. 40° C. and checked again. This procedure was continued until dissolution was observed or until 100 volumes of solvent had been added. After the addition of 100 volumes, a further 100 volumes were added to samples which had not dissolved to give a total of 200 volumes. If 200 volumes were added without dissolution, the solubility was calculated to be below this point (<5 mg/mL).

[2] = Gravimetric vapor sorption (GVS); conditions: for hygroscopic nature / weight uptake: GVS; for Post-GVS analysis by XRPD (form change): after GVS sorption/desorption cycle
Protocol: Approximately 10 mg of sample was placed into a mesh vapour sorption balance pan and loaded into an IGASorp Moisture Sorption Analyser balance by Hiden Analytical. The sample was subjected to a ramping profile from 40-90% relative humidity (RH) at 10% increments, maintaining the sample at each step until a stable weight had been achieved (98% step completion). After completion of the sorption cycle, the sample was dried using the same procedure to 0% RH, and finally taken back to the starting point of 40% RH. The weight change during the sorption/desorption cycles were plotted, allowing for the hygroscopic nature of the sample to be determined.

7-day stability testing = experiment: 7-day stability testing
Protocol: Form 2 of Compound 2 was scaled up in two solvents. Material underwent 7-day stability testing and/or aqueous solubility assessment. The 7-day stability testing was conducted as follows. Material was exposed to environments of 40° C./75% RH, ambient light and 80° C. for 7 days and the resulting solids analysed by XRPD to determine if any changes had occurred, and by HPLC to determine purity. The aqueous solubility assessment was conducted as follows. A slurry was created in deionised water (5.1 mg of Form 2 and 300 μL of water) and shaken for ca. 24 hours at ambient temperature (ca. 22° C.). The initial pH and final pH were measured. The resulting mixture was then isolated by centrifuge filtration, and the solution obtained analysed by HPLC to calculate the concentration of material dissolved. Remaining solid was analysed by XRPD to determine if any changes had occurred on slurrying.

[3] = Compound 6 polymorph screen; conditions: among the three Compound 6 polymorphs
Text: In a Compound 6 polymorph screen, two additional Compound 6 crystalline forms were identified. Compound 6, Form 2, was isolated from a 95/5 acetone/water slurry and Compound 6, Form 3, was isolated from in a 80/20 dioxane/water mixture.

[4] = ambient light / ambient conditions for 7 days

SMILES: O=C(OC(C(F)(F)F)C(F)(F)F)N1CCN(Cc2ccc(C(F)(F)F)cc2N2CCCC2)CC1 [Compound 1, 1,1,1,3,3,3-hexafluoropropan-2-yl 4-(2-(pyrrolidin-1-yl)-4-(trifluoromethyl)benzyl)piperazine-1-carboxylate]
- solubility ([1]; aqueous with cosolvent or surfactant or cyclodextrin, 2-Propanol:water (50%)): < 5 mg/mL
- solubility ([1]; aqueous with cosolvent or surfactant or cyclodextrin, Acetone:water (50%), precipitated after ca. 30 minutes): > 202 mg/mL
- solubility ([1]; aqueous with cosolvent or surfactant or cyclodextrin, Methanol:water (50%)): < 5 mg/mL
- solubility ([1]; organic solvent or mixture, 1,4-Dioxane): > 206 mg/mL
- solubility ([1]; organic solvent or mixture, 1-Butanol): 39 mg/mL (≈ 76.9 mM)
- solubility ([1]; organic solvent or mixture, 2-Ethoxyethanol): 103 mg/mL (≈ 203 mM)
- solubility ([1]; organic solvent or mixture, 2-Methyl tetrahydrofuran): > 200 mg/mL
- solubility ([1]; organic solvent or mixture, 2-Propanol, precipitated after ca. 2 days): 69 mg/mL (≈ 136 mM)
- solubility ([1]; organic solvent or mixture, Acetone): > 202 mg/mL
- solubility ([1]; organic solvent or mixture, Acetonitrile): > 196 mg/mL
- solubility ([1]; organic solvent or mixture, Anisole): > 200 mg/mL
- solubility ([1]; organic solvent or mixture, Benzonitrile): > 214 mg/mL
- solubility ([1]; organic solvent or mixture, Chlorobenzene): 69 mg/mL (≈ 136 mM)
- solubility ([1]; organic solvent or mixture, Dichloromethane): > 198 mg/mL
- solubility ([1]; organic solvent or mixture, Diisopropyl Ether): > 208 mg/mL
- solubility ([1]; organic solvent or mixture, Dimethylacetamide): > 204 mg/mL
- solubility ([1]; organic solvent or mixture, Dimethylformamide): > 204 mg/mL
- solubility ([1]; organic solvent or mixture, Dimethylsulfoxide): 50 mg/mL (≈ 98.5 mM)
- solubility ([1]; organic solvent or mixture, Ethanol): 67 mg/mL (≈ 132 mM)
- solubility ([1]; organic solvent or mixture, Ethyl acetate): > 198 mg/mL
- solubility ([1]; organic solvent or mixture, Heptane): 49 mg/mL (≈ 96.6 mM)
- solubility ([1]; organic solvent or mixture, Hexane): 49 mg/mL (≈ 96.6 mM)
- solubility ([1]; organic solvent or mixture, Isopropyl acetate): > 198 mg/mL
- solubility ([1]; organic solvent or mixture, Methanol): 72 mg/mL (≈ 142 mM)
- solubility ([1]; organic solvent or mixture, Methyl isobutyl ketone): > 196 mg/mL
- solubility ([1]; organic solvent or mixture, Methylethyl ketone): > 202 mg/mL
- solubility ([1]; organic solvent or mixture, N-Methyl-2-pyrrolidone): > 198 mg/mL
- solubility ([1]; organic solvent or mixture, Tetrahydrofuran): > 198 mg/mL
- solubility ([1]; organic solvent or mixture, Toluene): > 202 mg/mL
- solubility ([1]; organic solvent or mixture, tert-Amyl alcohol): 69 mg/mL (≈ 136 mM)
- solubility ([1]; organic solvent or mixture, tert-Butylmethyl ether): > 196 mg/mL
- solubility ([1]; Water): < 5 mg/mL

SMILES: Cl.Cl.O=C(OC(C(F)(F)F)C(F)(F)F)N1CCN(Cc2ccc(C(F)(F)F)cc2N2CCCC2)CC1 [Compound 3, 1,1,1,3,3,3-hexafluoropropan-2-yl 4-(2-(pyrrolidin-1-yl)-4-(trifluoromethyl)benzyl)piperazine-1-carboxylate bis-HCl salt]
- hygroscopic nature [2]: slightly hygroscopic
- weight uptake ([2]; at 90% RH): 1.4%
- Post-GVS analysis by XRPD (form change) [2]: remain unchanged

SMILES: CS(=O)(=O)O.O=C(OC(C(F)(F)F)C(F)(F)F)N1CCN(Cc2ccc(C(F)(F)F)cc2N2CCCC2)CC1 [Compound 5, 1,1,1,3,3,3-hexafluoropropan-2-yl 4-(2-(pyrrolidin-1-yl)-4-(trifluoromethyl)benzyl)piperazine-1-carboxylate mesylate salt]
- hygroscopic nature [2]: moderately hygroscopic
- weight uptake ([2]; at 90% RH): 3.5%
- weight uptake ([2]; up to 70% humidity): 2.8%
- Post-GVS analysis by XRPD (form change) [2]: maintained its form and crystallinity
- HPLC purity after stability testing (7-day stability testing; 40° C./75% RH for 7 days): 99.98%
- HPLC purity after stability testing (7-day stability testing; 80° C. for 7 days): 99.97%
- HPLC purity after stability testing (7-day stability testing; [4]): 99.95%

SMILES: O=C(OC(C(F)(F)F)C(F)(F)F)N1CCN(Cc2ccc(C(F)(F)F)cc2N2CCCC2)CC1 [Compound 6, 1,1,1,3,3,3-hexafluoropropan-2-yl 4-(2-(pyrrolidin-1-yl)-4-(trifluoromethyl)benzyl)piperazine-1-carboxylate fumarate salt]
- relative thermodynamic stability of polymorphs [3]: thermodynamically most stable form
- HPLC purity after stability testing (7-day stability testing; 40° C./75% RH for 7 days): 99.9%
- HPLC purity after stability testing (7-day stability testing; 80° C. for 7 days): 99.9%
- HPLC purity after stability testing (7-day stability testing; [4]): 99.9%
